Laboratory results from patent publication EP2363475A1, “SCREENING METHOD, COMPOSITION CONTAINING SUBSTANCE SELECTED BY THE SCREENING METHOD, AND BINDING SUBSTANCE” (Redox Bioscience Inc., priority 2008, dated 2010).

Target: T1, bond between rTRX and rMIF (Homo sapiens, UniProt P10599)
T1 construct: His tag; made in house; host or cells: Escherichia coli
T1 sequence (P10599 1-105): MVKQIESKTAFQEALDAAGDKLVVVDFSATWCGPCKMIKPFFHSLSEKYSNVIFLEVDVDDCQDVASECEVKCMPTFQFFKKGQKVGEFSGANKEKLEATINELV
Test: Screening by molecular interaction analysis (Biacore, SPR) for test substances that strengthen the bond between TRX and MIF
Assay type: binding
Conditions: test substance 500 µM mixed with rTRX 5 µM (Prostaglandin 12 also at 5 µM); FIGS. 7 to 11
Experimental: For several test substances, it was confirmed with a molecular interaction analysis whether they strengthened the bond between TRX and MIF or not.
rTRX; (same as the rTRX of Example 5) rMIF; (same as the rMIF of Example 5) BIAcore2000; (CM5 sensor chip)
N-acetylglucosamine Nitrosoglutathione Prostaglandin 12
rMIF was immobilized in a CM5 sensor chip as a ligand. The ligand was adjusted to have the rMIF concentration of less or equal to 200 nM by using running buffer, 10 mM HEPES (pH7.4), 150 mM NaCl, 3 mM EDTA and 0.005% Tween 20.
Then, N-acetylglucosamine, Nitrosoglutathione and Prostaglandin 12 were mixed with rTRX, respectively, to form three types of analytes.
In each analyte, the concentration of rTRX was 5 µM and the concentration of the test substance was 500 µM. For Prostaglandin 12, the analyte having its concentration of 5 µM was also analyzed.

Substance: Prostaglandin 12
- effect on the bond between rTRX and rMIF: remarkably strengthen the bond between rTRX and rMIF
